{
  "source": "paper PMC12845078",
  "about": "(Pharmaceuticals, 2025)",
  "key": {"[1]": {"test_system": "CYP1A2-mediated metabolism of MT", "assay": "Static DDI model prediction of CBD's impact on MT exposure, human", "conditions": "input of static DDI model", "source_text": "(AUC when co-administered with the inhibitor) to AUC[contr] (AUC without the inhibitor)."}, "in vitro [2]": {"assay": "in vitro", "conditions": "human, liver microsomes, Km of MT 6-hydroxylation, HLM"}, "[3]": {"test_system": "liver microsomes from different species", "assay": "Effect of MT on in vitro metabolism of CBD in liver microsomes", "format": "in vitro ADME, human, rat, beagle", "conditions": "CBD 1 μM, MT up to 32 μM", "protocol": "The reaction was initiated by adding pre-incubated NADPH. The system contained liver microsomes at 0.5 mg/mL and NADPH at 1 mM (both diluted in PBS containing MgCl2). […] All samples were prepared in triplicate. The content of CBD was determined by LC-MS/MS."}, "in vitro [4]": {"assay": "in vitro", "conditions": "rat, liver microsomes"}, "[5]": {"conditions": "read-out: Km of MT 6-hydroxylation; HLM"}, "[6]": {"molecular_target": "T1, CYP enzymes involved in melatonin 6-hydroxylation (Canis lupus familiaris, UniProt P56592)", "T1 sequence (P56592 2-512)": "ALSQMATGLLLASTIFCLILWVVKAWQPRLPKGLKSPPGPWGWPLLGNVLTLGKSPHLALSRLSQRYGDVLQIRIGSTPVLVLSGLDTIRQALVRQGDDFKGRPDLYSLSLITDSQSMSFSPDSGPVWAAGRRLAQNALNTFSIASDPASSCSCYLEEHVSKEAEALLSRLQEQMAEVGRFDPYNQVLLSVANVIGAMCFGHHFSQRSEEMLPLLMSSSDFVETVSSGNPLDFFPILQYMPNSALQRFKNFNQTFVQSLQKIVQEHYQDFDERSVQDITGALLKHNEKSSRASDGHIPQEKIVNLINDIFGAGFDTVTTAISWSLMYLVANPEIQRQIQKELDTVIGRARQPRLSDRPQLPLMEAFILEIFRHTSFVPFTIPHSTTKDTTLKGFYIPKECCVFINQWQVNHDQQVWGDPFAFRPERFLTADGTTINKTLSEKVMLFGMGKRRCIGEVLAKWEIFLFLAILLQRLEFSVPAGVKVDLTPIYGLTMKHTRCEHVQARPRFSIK", "assay": "Competitive inhibition of CBD on MT 6-hydroxylation, beagle liver microsomes", "format": "in vitro ADME", "conditions": "dog, probe melatonin (MT) 1 μM, 6-hydroxylation to 6-HMT", "protocol": "(§1) The final incubation system contained 100 mM PBS, 5 mM MgCl2, 0.5 mg/mL liver microsomal protein, and 1 mM NADPH. […] The final concentration of MT was 1 μM."}, "[7]": {"assay": "Protein binding with hepatic microsomes and plasma proteins across species (summary)", "format": "in vitro ADME", "conditions": "beagle (dog), rat, human, liver microsomes and plasma, pH 7.4, both hepatic microsomes and plasma proteins", "description": "After incubation for 20 min, a portion of the whole blood was centrifuged at 2500× g for 10 min at 4 °C to separate plasma; another portion of the whole blood was subjected to three cycles of freeze–thawing and ultrasonicated for 10 min to disrupt cells. Equal volumes of plasma and whole blood samples were added to the whole blood and plasma specimens, respectively, followed by protein precipitation with acetonitrile containing an internal standard (IS). […] The RED inserts were placed in the matching incubation plate: 200 µL of drug-containing matrix were added to the sample chamber, and 400 µL of PBS buffer (pH: 7.4) were added to the buffer chamber. After incubation in a constant-temperature shaking incubator for 6 h (37 °C), samples from the sample chamber and buffer chamber were diluted 1:1 with PBS or matrix, respectively, and proteins were precipitated with acetonitrile containing IS."}, "[8]": {"molecular_target": "T2, CYP1A2 (CYP enzymes mediating MT 6-hydroxylation) (Homo sapiens, UniProt P05177)", "T2 construct": "tissue XenoTech; host or cells: human liver microsomes", "T2 sequence (P05177 1-516)": "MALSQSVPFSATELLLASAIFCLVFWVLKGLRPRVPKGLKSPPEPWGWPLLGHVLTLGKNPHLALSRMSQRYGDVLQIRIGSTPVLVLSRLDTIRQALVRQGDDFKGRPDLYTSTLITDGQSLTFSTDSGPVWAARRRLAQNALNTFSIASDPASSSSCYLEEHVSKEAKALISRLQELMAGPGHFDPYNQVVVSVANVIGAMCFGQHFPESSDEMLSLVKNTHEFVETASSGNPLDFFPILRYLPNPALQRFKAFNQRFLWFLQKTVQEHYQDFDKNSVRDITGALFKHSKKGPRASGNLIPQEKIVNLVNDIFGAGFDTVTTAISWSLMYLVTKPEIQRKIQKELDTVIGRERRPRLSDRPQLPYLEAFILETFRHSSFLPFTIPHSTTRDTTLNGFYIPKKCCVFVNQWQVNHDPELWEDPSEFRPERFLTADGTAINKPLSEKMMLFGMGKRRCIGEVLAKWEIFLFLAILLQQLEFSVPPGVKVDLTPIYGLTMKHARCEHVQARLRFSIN", "assay": "Irreversible (mechanism-based) inhibition of CBD on MT 6-hydroxylation, human liver microsomes", "format": "in vitro ADME", "conditions": "probe melatonin (MT) 200 µM, 6-hydroxylation to 6-HMT", "protocol": "(§2) The reaction was initiated by adding the NADPH working solution that had also been pre-incubated for 5 min. […] After pre-incubation for different durations (0, 5, 10, 20, 30 min), 10 μL of the incubation mixture were transferred to a secondary incubation system containing 148 μL PBS and 2 μL MT working solution (final MT concentration: 200 μM). An additional 40 μL of NADPH were added, and the mixture was incubated for 30 min.\n(§3) Irreversible inhibition assays: A semi-logarithmic curve was generated by plotting residual enzyme activity against pre-incubation time. The observed CYP enzyme inactivation rate (Kobs) was derived from the initial slope of the linear regression. The Lineweaver-Burk double reciprocal curve (1/Kobs vs. 1/I) described by Formula (8) was used to determine KI and Kinact: Kinact was estimated from the reciprocal of the Y-intercept, and KI was obtained from the negative reciprocal of the X-intercept.(8) 1/k=KI/Kinact1/I+1/Kinact"}, "[9]": {"molecular_target": "T3, CYP enzymes mediating MT 6-hydroxylation in human liver microsomes (CYP1A2) (Homo sapiens, UniProt P05177)", "T3 construct": "tissue XenoTech; host or cells: human liver microsomes", "T3 sequence (P05177 1-516)": "T2 sequence (P05177 1-516)", "assay": "Irreversible (mechanism-based) inhibition of CBD on MT 6-hydroxylation, human liver microsomes", "format": "in vitro ADME", "protocol": "as §2, §3"}, "[10]": {"molecular_target": "T4, CYP enzymes involved in melatonin 6-hydroxylation, human liver microsomes (Homo sapiens, UniProt P05177)", "T4 construct": "tissue XenoTech; host or cells: human liver microsomes", "T4 sequence (P05177 1-516)": "T2 sequence (P05177 1-516)", "assay": "Competitive inhibition of CBD on MT 6-hydroxylation, human liver microsomes", "format": "in vitro ADME", "protocol": "as §1"}, "[11]": {"molecular_target": "T5, CYP enzymes involved in melatonin 6-hydroxylation (Homo sapiens, UniProt P05177)", "T5 construct": "tissue XenoTech; host or cells: human liver microsomes", "T5 sequence (P05177 1-516)": "T2 sequence (P05177 1-516)", "assay": "Competitive inhibition of CBD on MT 6-hydroxylation, human liver microsomes", "format": "in vitro ADME", "conditions": "human, liver microsomes, probe melatonin (MT) 1 μM, 6-hydroxylation to 6-HMT", "protocol": "as §1"}, "[12]": {"test_system": "CYP1A2-mediated metabolism of MT", "conditions": "cited from earlier work"}, "[13]": {"test_system": "CYP enzymes of MT 6-hydroxylation", "assay": "in vitro", "conditions": "beagle, dog, liver microsomes, probe melatonin (MT) 2 μM, 6-hydroxylation to 6-HMT, IC50 Ratio (IC50 shift), DLM, 30 min pre-incubation with/without NADPH", "description": "The reaction was initiated by adding pre-warmed NADPH (control groups lacked NADPH). The final incubation mixture contained 100 mM PBS, 5 mM MgCl2, liver microsomes (0.5 mg/mL), 1 mM NADPH, and 0.2% BSA. […] Concentrations in beagle dog microsomal incubations were 0, 0.125, 0.25, 0.5, 1, 2, 4, 8, 16, and 32 μM. […] All samples were prepared in triplicate. The concentration of 6-HMT was quantified using LC-MS/MS.\nCompetitive inhibition and time-dependent inhibition assays: The production of 6-HMT without inhibitors was set as 100%."}},
  "data": [
    {"compound": "COc1ccc2[nH]cc(CCNC(C)=O)c2c1", "note": "[MT, Melatonin]", "values": [
      {"measurement": "fm(CYP1A2), proportion of MT metabolized by CYP1A2", "setting": "[1]", "result": 0.92},
      {"measurement": "Km at 15 min", "setting": "in vitro [2]", "result": 165, "unit": "µM"},
      {"measurement": "competitive inhibition of CBD metabolism by MT", "setting": "[3]", "result": "does not exert competitive inhibition on CBD"},
      {"measurement": "Km at 15 min", "setting": "in vitro [4]", "result": 147, "unit": "µM"},
      {"measurement": "Km", "setting": "[5]", "result": 165, "unit": "µM"}
    ]},
    {"compound": "C=C(C)[C@@H]1CCC(C)=C[C@H]1c1c(O)cc(CCCCC)cc1O", "note": "[CBD, Cannabidiol]", "values": [
      {"measurement": "IC50 at 30 min", "setting": "[6]; IC50, beagle, as listed in Table 6 for static DDI model", "result": 0.65, "unit": "µM"},
      {"measurement": "IC50 at 30 min", "setting": "[6]; IC50, inhibition of MT 6-hydroxylation, DLM, MT 1 μM", "result": "3.42 ± 1.3", "unit": "µM"},
      {"measurement": "fraction unbound at 6 h", "setting": "[7]", "result": "< 0.01"},
      {"measurement": "Ki", "setting": "[8]; human, liver microsomes", "result": 0.0187, "unit": "µM"},
      {"measurement": "kinact", "setting": "[8]; human liver microsomes", "result": 0.00105, "unit": "s⁻¹"},
      {"measurement": "Ki", "setting": "[9]", "result": 25.6, "unit": "µM"},
      {"measurement": "IC50", "setting": "[10]", "result": "16.5 ± 4.23", "unit": "µM"},
      {"measurement": "IC50 at 30 min", "setting": "[11]", "result": 3.39, "unit": "µM"},
      {"measurement": "[I]h (estimated free concentration in liver)", "setting": "[12]; human, CBD dose 2000 mg", "result": 3.55, "unit": "µM"},
      {"measurement": "[I]h, concentration adopted for human", "setting": "[12]; oral administration of 2000 mg CBD", "result": 3.55, "unit": "µM"},
      {"measurement": "IC50 shift at 30 min", "setting": "[13]", "result": 1.27}
    ]}
  ]
}
